From PMC5020642, “Structural insight into the arginine-binding specificity of CASTOR1 in amino acid-dependent mTORC1 signaling” (Cell Discovery, 2016) come the findings set out here.

One data set addresses T1, A^2A^2A^2A^1.
T1 construct: gene CASTOR2; one polypeptide: CASTOR2 with ACT4 replaced by ACT4 of CASTOR1 (ACT4 of CASTOR1 = residues 176-179 and 263-329); E. coli
The data set can be described thus: isothermal titration calorimetry. The data set is classed as binding, Homo sapiens. The note with it: 20 °C; 1 mM ligand titrated into 70 μM protein; single-site model. From the text: isothermal titration calorimetry on A^2A^2A^2A^1

In data set [1] the target is T2, CASTOR1 (Homo sapiens, UniProt Q8WTX7).
T2 construct: full-length, residues 1-329, C-terminal His6 tag (pET-28a), E. coli BL21(DE3), homodimer in solution; Ni-NTA and gel filtration
T2 sequence (Q8WTX7 1-329): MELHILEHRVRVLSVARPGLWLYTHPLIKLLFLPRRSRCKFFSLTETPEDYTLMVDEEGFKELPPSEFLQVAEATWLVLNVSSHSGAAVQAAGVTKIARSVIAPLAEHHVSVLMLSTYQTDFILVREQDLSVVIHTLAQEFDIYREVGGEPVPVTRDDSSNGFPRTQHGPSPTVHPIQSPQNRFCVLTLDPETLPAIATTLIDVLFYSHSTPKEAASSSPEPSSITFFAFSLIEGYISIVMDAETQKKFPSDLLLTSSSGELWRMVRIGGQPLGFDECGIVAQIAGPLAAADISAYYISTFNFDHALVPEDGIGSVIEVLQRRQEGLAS
Description: isothermal titration calorimetry. In kind it is binding.

Another data set deals with T3, A^2A^1A^2A^2.
T3 construct: gene CASTOR2; one polypeptide: CASTOR2 with ACT2 replaced by ACT2 of CASTOR1 (ACT2 of CASTOR1 = residues 1-5 and 76-147); E. coli
Description: isothermal titration calorimetry. In kind it is binding, Homo sapiens. The conditions noted are these: 20 °C; 1 mM ligand titrated into 70 μM protein; single-site model. From the text: isothermal titration calorimetry on A^2A^1A^2A^2
In general terms: Isothermal titration calorimetry measures the heat released or taken up as one component is titrated into another.

A further data set has as its target T4, A^2A^1A^2A^1.
T4 construct: gene CASTOR2; one polypeptide: CASTOR2 with ACT2 and ACT4 replaced by those of CASTOR1 (CASTOR1 residues 1-5, 76-147, 176-179, 263-329); E. coli
Description: isothermal titration calorimetry. The data set is classed as binding, Homo sapiens. The conditions noted are these: 20 °C; 1 mM ligand titrated into 70 μM protein; single-site model. From the text:
isothermal titration calorimetry on A^2A^1A^2A^1

Data set [2] deals with T5, CASTOR1 (Homo sapiens, UniProt Q8WTX7, F303A).
T5 construct: full-length, residues 1-329, C-terminal His6 tag (pET-28a), E. coli BL21(DE3), homodimer in solution; Ni-NTA and gel filtration
T5 sequence (Q8WTX7 1-329 F303A): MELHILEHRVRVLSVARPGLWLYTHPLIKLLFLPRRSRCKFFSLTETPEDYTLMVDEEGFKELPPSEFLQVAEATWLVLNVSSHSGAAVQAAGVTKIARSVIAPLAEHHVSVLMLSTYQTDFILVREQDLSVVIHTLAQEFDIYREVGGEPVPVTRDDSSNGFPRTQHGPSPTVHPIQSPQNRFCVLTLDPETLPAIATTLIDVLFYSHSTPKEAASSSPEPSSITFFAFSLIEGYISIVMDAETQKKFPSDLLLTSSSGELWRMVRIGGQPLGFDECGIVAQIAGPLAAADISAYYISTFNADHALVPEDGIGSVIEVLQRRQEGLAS
Description: isothermal titration calorimetry. In kind it is binding. From the text: (§1) isothermal titration calorimetry on CASTOR1

Data set [3] concerns the target T6, CASTOR1 (Homo sapiens, UniProt Q8WTX7, V281A).
T6 construct: full-length, residues 1-329, C-terminal His6 tag (pET-28a), E. coli BL21(DE3), homodimer in solution; Ni-NTA and gel filtration
T6 sequence (Q8WTX7 1-329 V281A): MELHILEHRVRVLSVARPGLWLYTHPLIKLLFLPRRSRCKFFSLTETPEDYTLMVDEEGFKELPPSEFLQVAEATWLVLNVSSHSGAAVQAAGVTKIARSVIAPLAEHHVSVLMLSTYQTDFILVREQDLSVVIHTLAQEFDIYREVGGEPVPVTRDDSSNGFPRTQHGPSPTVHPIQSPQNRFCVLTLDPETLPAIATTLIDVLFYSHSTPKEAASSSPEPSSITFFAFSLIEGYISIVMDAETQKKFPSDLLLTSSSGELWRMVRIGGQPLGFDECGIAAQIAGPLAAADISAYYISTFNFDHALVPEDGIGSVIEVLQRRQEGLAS
The data set can be described thus: isothermal titration calorimetry. The data set is classed as binding.
Source text: as §1

Data set [4] deals with T7, CASTOR1 (Homo sapiens, UniProt Q8WTX7, L113A).
T7 construct: full-length, residues 1-329, C-terminal His6 tag (pET-28a), E. coli BL21(DE3), homodimer in solution; Ni-NTA and gel filtration
T7 sequence (Q8WTX7 1-329 L113A): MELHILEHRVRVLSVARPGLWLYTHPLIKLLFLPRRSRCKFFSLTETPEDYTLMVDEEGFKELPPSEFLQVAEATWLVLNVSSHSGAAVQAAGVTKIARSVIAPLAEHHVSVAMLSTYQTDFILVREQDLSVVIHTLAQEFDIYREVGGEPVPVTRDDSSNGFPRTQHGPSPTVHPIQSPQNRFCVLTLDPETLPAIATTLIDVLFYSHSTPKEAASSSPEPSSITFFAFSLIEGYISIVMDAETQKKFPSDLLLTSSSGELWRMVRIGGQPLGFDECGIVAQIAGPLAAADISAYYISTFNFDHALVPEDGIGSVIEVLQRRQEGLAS
Description: isothermal titration calorimetry. In kind it is binding.
Source text: as §1

Data set [5] deals with the molecule itself. Description: SEC + other: dynamic light scattering; purified recombinant proteins in solution; CASTOR1 with and without arginine (dimerization independent of arginine); the CASTOR1-CASTOR2 complex analysed after co-purification.

As usually defined, the Kd is the free concentration of one partner at which half of the binding sites on the other are occupied at equilibrium, for simple one-to-one binding. A higher Kd goes with a looser complex. Turning to `N=C(N)NCCC[C@H](N)C(=O)O` [arginine], the equilibrium dissociation constant (Kd) at A^2A^2A^2A^1 stood at 40.2 ± 8.4 µM; on CASTOR1 [1], 5.5 ± 0.4 µM; at A^2A^1A^2A^2 it was 55 ± 11.5 µM; at A^2A^1A^2A^1 it was 8.6 ± 1.9 µM; on CASTOR1 [2] it was 17.6 ± 1.9 µM; at CASTOR1 [3], 25.6 ± 4.3 µM. Also, on CASTOR1 [4], the Kd was determined as 160 ± 23.6 µM.

B1: full-length human CASTOR1 (residues 1-329), His6-tagged (natural protein, UniProt Q8WTX7 1-329, looked up)
chain: MELHILEHRVRVLSVARPGLWLYTHPLIKLLFLPRRSRCKFFSLTETPEDYTLMVDEEGFKELPPSEFLQVAEATWLVLNVSSHSGAAVQAAGVTKIARSVIAPLAEHHVSVLMLSTYQTDFILVREQDLSVVIHTLAQEFDIYREVGGEPVPVTRDDSSNGFPRTQHGPSPTVHPIQSPQNRFCVLTLDPETLPAIATTLIDVLFYSHSTPKEAASSSPEPSSITFFAFSLIEGYISIVMDAETQKKFPSDLLLTSSSGELWRMVRIGGQPLGFDECGIVAQIAGPLAAADISAYYISTFNFDHALVPEDGIGSVIEVLQRRQEGLAS
notes: CASTOR1, human, full length, residues 1-329; Cloned in pET-28a (NcoI/XhoI); Se-Met substituted protein was used for phasing; No removal of the His6 tag is described; also called recombinant CASTOR1; source: E. coli BL21 (DE3), purified (Ni-NTA, gel filtration on Superdex 200)
Broadly, the stoichiometry N is the number of molecules, sites or subunits per partner or assembly. As to B1, the “stoichiometry N” value in data set [5] was 2.

B2: CASTOR2, His6-SUMO fusion (natural protein, human, UniProt A6NHX0 1-329, looked up)
chain: MELHILEHRLQVASVAKESIPLFTYGLIKLAFLSSKTRCKFFSLTETPEDYTIIVDEEGFLELPSSEHLSVADATWLALNVVSGGGSFSSSQPIGVTKIAKSVIAPLADQNISVFMLSTYQTDFILVRERDLPFVTHTLSSEFTILRVVNGETVAAENLGITNGFVKPKLVQRPVIHPLSSPSNRFCVTSLDPDTLPAVATLLMDVMFYSNGVKDPMATGDDCGHIRFFSFSLIEGYISLVMDVQTQQRFPSNLLFTSASGELWKMVRIGGQPLGFDECGIVAQISEPLAAADIPAYYISTFKFDHALVPEENINGVISALKVSQAEKH
notes: CASTOR2, human; Homodimer on its own; in the co-expressed complex with m3 it stands once (heterodimer); Purification of the co-expressed complex is said to be the same as for CASTOR1 (Ni-NTA), so the tag would be the handle there; also called His6-SUMO fused castor2; source: E. coli BL21 (DE3), purified (Ni-NTA, gel filtration); also co-expressed with untagged CASTOR1 in E. coli BL21 (DE3)
For the molecule B2, the “stoichiometry N” value in data set [5] amounted to 2.
